Test results from patent US9127003B2, “2-(azaindol-2-yl)benzimidazoles as PAD4 inhibitors” (Glaxo Group Limited, priority 2012, dated 2015).
Values joined by “and” are separate entries in the source; they are usually repeats but may differ in a detail not shown here. Identical values can stand only once. Counter-ions that a name gives are not always drawn.

Columns and labels:
[1] = target: T1, Recombinant human PAD4 (residues 1-663) (Homo sapiens, UniProt Q9UM07); assay: PAD4 enzyme assay (NH3 release, BAEE substrate, fluorescence); type: biochemical; details: PAD4 enzyme assay above (Conditions A or B) or similar assays; read-out: mean pIC50 (converted)
T1 construct: Recombinant human PAD4 (residues 1-663); GST (N, cleaved yes); made in house; host or cells: E. coli
Description: Recombinant human PAD4 (residues 1-663) was expressed in E. coli as an N-terminal GST-tagged fusion protein. During purification of the protein, the GST tag was removed by cleavage with PreScission Protease (GE Healthcare). Activity of the final product was determined using a FLINT NH3 release assay.
(§1) 8 μl of PAD4 enzyme diluted to an assay concentration of 75 nm in assay buffer (a).: (100 mM HEPES, 50 mM NaCl, 2 mM DTT and 0.6 mg/mIBSA pH 8), or in assay buffer (b).: (100 mM HEPES, 50 mM NaCl, 2 mM DTT, 7.5% glycerol and 1.5 mM CHAPS pH 8), and added to wells containing 0.1 μl of various concentrations of compound or DMSO vehicle (0.8% final) in a Greiner high volume 384 well black plate. Following 30 mins pre-incubation at room temperature, the reaction was initiated by the addition of 4 μl of substrate buffer containing 3 mM N-a-benzoyl-L-arginine ethyl ester (BAEE), 100 mM HEPES, 50 mM NaCl, 600 uM CaCl2 (2H2O) and 2 mM DTT, pH 8.0. The reaction was stopped after 100 mins with the addition of 38 μl stop/detection buffer containing 50 mM EDTA, 2.6 mM phthalaldehyde and 2.6 mM DTT. Assay incubated at room temperature for 90 mins before measuring fluorescent signal (λex 413/λem 476) on an Envision plate reader (Perkin Elmer Life Sciences, Waltham, Mass., USA)
as §1, with “of 30 nM” for “of 75 nm”, “buffer” for “buffer (a).:”, “mg/mIBSA” for “mg/mIBSA pH 8), or in assay buffer (b).: (100 mM HEPES, 50 mM NaCl, 2 mM DTT, 7.5% glycerol and 1.5 mM CHAPS”, “after 60” for “after 100”, “(λex 405/λem 460)” for “(λex 413/λem 476)”

[2] = target: T2, Recombinant human PAD2 (residues 1-665) (Homo sapiens, UniProt Q9Y2J8); assay: PAD2 enzyme assay (NH3 release, BAEE substrate, fluorescence); type: biochemical; details: PAD2 enzyme assay above or similar assays; read-out: mean pIC50 (converted)
T2 construct: Recombinant human PAD2 (residues 1-665); 6His-FLAG (N); made in house; host or cells: baculovirus-infected Sf9 insect cells
Description: Recombinant human PAD2 (residues 1-665) was expressed in baculovirus-infected Sf9 insect cells as an N-terminal 6His-FLAG-tagged fusion protein. Activity of the final product was determined using a FLINT NH3 release assay.
8 μl of PAD2 enzyme diluted to an assay concentration of 30 nM in assay buffer (100 mM HEPES, 50 mM NaCl, 2 mM DTT, 7.5% glycerol and 1.5 mM CHAPS pH 8), and added to wells containing 0.1 μl of various concentrations of compound or DMSO vehicle (0.8% final) in a Greiner high volume 384 well black plate. Following 30 mins pre-incubation at room temperature, the reaction was initiated by the addition of 4 μl of substrate buffer containing 180 uM N-a-benzoyl-L-arginine ethyl ester (BAEE), 100 mM HEPES, 50 mM NaCl, 240 uM CaCl2 (2H2O) and 2 mM DTT, pH 8.0. The reaction was stopped after 90 mins with the addition of 38 μl stop/detection buffer containing 50 mM EDTA, 2.6 mM phthalaldehyde and 2.6 mM DTT. Assay incubated at room temperature for 90 mins before measuring fluorescent signal (λex 405/λem 460) on an Envision plate reader (Perkin Elmer Life Sciences, Waltham, Mass., USA)

T1 sequence (Q9UM07 whole entry, the tested form may be a part): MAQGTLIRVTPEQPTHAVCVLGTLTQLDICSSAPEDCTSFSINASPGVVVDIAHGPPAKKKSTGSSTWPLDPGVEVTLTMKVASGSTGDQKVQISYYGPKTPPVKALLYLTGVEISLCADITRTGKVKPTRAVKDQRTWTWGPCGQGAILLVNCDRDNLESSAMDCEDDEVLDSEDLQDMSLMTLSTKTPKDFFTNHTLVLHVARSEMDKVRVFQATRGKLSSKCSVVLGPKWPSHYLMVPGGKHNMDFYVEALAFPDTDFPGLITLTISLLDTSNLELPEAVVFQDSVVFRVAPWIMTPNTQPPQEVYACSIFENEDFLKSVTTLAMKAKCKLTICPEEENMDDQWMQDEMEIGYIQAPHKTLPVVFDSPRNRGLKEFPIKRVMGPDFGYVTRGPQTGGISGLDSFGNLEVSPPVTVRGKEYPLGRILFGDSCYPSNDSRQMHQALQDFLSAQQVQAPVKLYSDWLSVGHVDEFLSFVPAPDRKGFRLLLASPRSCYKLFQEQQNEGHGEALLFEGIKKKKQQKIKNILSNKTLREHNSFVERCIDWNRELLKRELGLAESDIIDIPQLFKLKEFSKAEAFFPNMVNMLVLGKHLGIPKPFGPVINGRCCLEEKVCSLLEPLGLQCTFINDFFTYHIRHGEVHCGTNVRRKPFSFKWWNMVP
T2 sequence (Q9Y2J8 whole entry, the tested form may be a part): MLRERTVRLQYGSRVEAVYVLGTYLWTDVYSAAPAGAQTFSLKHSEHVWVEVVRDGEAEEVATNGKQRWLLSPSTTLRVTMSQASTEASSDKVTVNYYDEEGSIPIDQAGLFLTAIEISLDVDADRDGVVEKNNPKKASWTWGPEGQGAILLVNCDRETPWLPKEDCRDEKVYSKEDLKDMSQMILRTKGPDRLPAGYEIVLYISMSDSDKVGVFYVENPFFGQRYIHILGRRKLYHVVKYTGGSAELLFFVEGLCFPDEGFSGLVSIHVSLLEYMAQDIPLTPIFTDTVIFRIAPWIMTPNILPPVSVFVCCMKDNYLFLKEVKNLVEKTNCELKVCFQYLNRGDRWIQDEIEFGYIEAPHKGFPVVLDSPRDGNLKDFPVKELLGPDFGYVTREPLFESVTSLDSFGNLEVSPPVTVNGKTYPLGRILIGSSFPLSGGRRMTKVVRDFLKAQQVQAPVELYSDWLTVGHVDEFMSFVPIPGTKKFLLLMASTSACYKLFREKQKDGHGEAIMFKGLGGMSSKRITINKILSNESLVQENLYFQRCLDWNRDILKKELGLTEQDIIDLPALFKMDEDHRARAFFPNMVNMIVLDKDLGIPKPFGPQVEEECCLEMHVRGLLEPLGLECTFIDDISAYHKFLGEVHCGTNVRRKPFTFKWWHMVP

| SMILES | IC50 [1] | IC50 [2] |
| --- | --- | --- |
| COc1cc(C(=O)N2CCC[C@@H](N)C2)cc2nc(-c3cc4cccnc4n3CC(F)(F)F)n(C)c12 [Example 11B, (R)-(3-Aminopiperidin-1-yl)(7-methoxy-1-methyl-2-(1-(2,2,2-trifluoroethyl)-1H-pyrrolo[2,3-b]pyridin-2-yl)-1H-benzo[d]imidazol-5-yl)methanone, hydrochloride] | 0.0316 to 10 µM and 0.126 µM | 63.1 to 79.4 µM and > 79.4 µM |
| Cn1c(-c2cc3cccnc3n2CC2CC2)nc2cc(C(=O)N3CC[C@@H](O)[C@@H](N)C3)ccc21 [Example 13, ((3S,4R)-3-Amino-4-hydroxypiperidin-1-yl)(2-(1-(cyclopropylmethyl)-1H-pyrrolo[2,3-b]pyridin-2-yl)-1-methyl-1H-benzo[d]imidazol-5-yl)methanone, hydrochloride] | 0.0316 to 10 µM | 63.1 to 79.4 µM |
| COc1cc(C(=O)N2CC[C@@H](O)[C@@H](N)C2)cc2nc(-c3cc4cccnc4n3CC3CC3)n(C)c12 [Example 14, ((3S,4R)-3-Amino-4-hydroxypiperidin-1-yl)(2-(1-(cyclopropylmethyl)-1H-pyrrolo[2,3-b]pyridin-2-yl)-7-methoxy-1-methyl-1H-benzo[d]imidazol-5-yl)methanone, hydrochloride] | 0.0316 to 10 µM and 0.0794 µM | > 79.4 µM |
| COc1cc(C(=O)N2CCC[C@@H](N)C2)cc2nc(-c3cc4cccnc4n3CC(C)(C)C)n(C)c12 [Example 16, (R)-(3-Aminopiperidin-1-yl)(7-methoxy-1-methyl-2-(1-neopentyl-1H-pyrrolo[2,3-b]pyridin-2-yl)-1H-benzo[d]imidazol-5-yl)methanone] | 0.0316 to 10 µM | 63.1 to 79.4 µM |
| CCn1c(-c2nc3cc(C(=O)N4CCC[C@H](N)C4)cc(OC)c3n2C)cc2cccnc21 [Example 19, (S)-(3-Aminopiperidin-1-yl)(2-(1-ethyl-1H-pyrrolo[2,3-b]pyridin-2-yl)-7-methoxy-1-methyl-1H-benzo[d]imidazol-5-yl)methanone, hydrochloride] | 0.0316 to 10 µM | 63.1 to 79.4 µM |
| COc1cc(C(=O)N2CCC[C@@H](N)C2)cc2nc(-c3cc4cccnc4n3CC(C)C)n(C)c12 [Example 22, (R)-(3-Aminopiperidin-1-yl)(2-(1-isobutyl-1H-pyrrolo[2,3-b]pyridin-2-yl)-7-methoxy-1-methyl-1H-benzo[d]imidazol-5-yl)methanone, hydrochloride] | 0.0316 to 10 µM | 63.1 to 79.4 µM |
